Measurements as given in patent US9295673B2, “Combination of mTOR inhibitors and P13-kinase inhibitors, and uses thereof” (Intellikine LLC, priority 2011, dated 2016).
Read-outs that look alike come from different tables or passages of the source.

Columns and labels:
[1] = target: PI3K γ (Homo sapiens, UniProt P48736); test: PI 3-Kinase (human) HTRF assay, PI3K γ
[2] = target: PI3K α (Homo sapiens, UniProt P42336); test: PI 3-Kinase (human) HTRF assay, PI3K α
Description: (§1) An exemplary system is PI 3-Kinase (human) HTRF™ Assay from Upstate. […] Briefly, the assay is a time resolved FRET assay that indirectly measures PIP3 product formed by the activity of a PI3-K. The kinase reaction is performed in a microtitre plate (e.g., a 384 well microtitre plate). The total reaction volume is approximately 20 ul per well. In the first step, each well receives 2 ul of test compound in 20% dimethylsulphoxide resulting in a 2% DMSO final concentration. […] The plate is sealed and incubated for 15 minutes at room temperature. […] The plate is sealed and incubated for 1 hour at room temperature. The reaction is stopped by adding 5 ul of Stop Solution per well and then 5 ul of Detection Mix is added per well. The plate is sealed, incubated for 1 hour at room temperature, and then read on an appropriate plate reader. Data is analyzed and IC50s are generated using GraphPad Prism 5.

[3] = target: PI3K β (Homo sapiens, UniProt P42338); test: PI 3-Kinase (human) HTRF assay, PI3K β
Description: as §1

[4] = target: PI3K δ (Homo sapiens, UniProt O00329); test: PI 3-Kinase (human) HTRF assay, PI3K δ
Description: as §1

[5] = target: T1, mTOR (Homo sapiens, UniProt P42345); test: mTOR kinase inhibition assay (radiometric or LanthaScreen TR-FRET); type: biochemical; details: read-out: mTORC IC50
T1 construct: purchased Invitrogen
T1 sequence (P42345 1360-2549 limits assumed): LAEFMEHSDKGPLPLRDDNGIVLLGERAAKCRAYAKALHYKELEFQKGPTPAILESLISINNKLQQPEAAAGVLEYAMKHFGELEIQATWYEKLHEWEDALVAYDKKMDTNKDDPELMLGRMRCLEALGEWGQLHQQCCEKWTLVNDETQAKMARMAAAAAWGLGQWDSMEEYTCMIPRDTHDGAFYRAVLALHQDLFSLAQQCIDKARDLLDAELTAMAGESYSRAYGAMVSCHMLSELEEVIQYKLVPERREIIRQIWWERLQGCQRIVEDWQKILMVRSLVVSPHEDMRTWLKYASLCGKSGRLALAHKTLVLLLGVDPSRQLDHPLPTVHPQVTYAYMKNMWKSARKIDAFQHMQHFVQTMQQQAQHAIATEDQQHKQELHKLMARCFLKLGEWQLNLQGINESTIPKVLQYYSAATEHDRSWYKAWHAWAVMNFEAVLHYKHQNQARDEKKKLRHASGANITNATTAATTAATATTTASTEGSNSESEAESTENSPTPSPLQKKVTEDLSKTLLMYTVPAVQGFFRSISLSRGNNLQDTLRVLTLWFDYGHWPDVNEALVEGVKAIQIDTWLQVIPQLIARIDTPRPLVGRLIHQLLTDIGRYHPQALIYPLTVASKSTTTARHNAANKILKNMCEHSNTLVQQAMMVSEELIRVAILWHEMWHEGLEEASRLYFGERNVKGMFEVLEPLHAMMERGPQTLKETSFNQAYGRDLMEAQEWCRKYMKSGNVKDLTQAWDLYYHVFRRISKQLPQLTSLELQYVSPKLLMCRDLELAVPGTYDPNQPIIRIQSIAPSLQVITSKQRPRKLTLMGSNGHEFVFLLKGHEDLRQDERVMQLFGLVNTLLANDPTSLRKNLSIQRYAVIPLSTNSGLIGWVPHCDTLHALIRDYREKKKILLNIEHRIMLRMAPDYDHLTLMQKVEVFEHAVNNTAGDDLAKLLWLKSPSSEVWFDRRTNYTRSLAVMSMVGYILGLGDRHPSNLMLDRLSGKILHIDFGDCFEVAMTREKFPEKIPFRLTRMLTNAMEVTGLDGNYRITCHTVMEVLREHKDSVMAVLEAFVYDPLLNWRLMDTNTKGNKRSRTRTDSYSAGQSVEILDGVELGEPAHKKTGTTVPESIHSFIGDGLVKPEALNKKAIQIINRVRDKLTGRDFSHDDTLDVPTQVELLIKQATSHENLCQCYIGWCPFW

Sequence of PI3K β (P42338 whole entry): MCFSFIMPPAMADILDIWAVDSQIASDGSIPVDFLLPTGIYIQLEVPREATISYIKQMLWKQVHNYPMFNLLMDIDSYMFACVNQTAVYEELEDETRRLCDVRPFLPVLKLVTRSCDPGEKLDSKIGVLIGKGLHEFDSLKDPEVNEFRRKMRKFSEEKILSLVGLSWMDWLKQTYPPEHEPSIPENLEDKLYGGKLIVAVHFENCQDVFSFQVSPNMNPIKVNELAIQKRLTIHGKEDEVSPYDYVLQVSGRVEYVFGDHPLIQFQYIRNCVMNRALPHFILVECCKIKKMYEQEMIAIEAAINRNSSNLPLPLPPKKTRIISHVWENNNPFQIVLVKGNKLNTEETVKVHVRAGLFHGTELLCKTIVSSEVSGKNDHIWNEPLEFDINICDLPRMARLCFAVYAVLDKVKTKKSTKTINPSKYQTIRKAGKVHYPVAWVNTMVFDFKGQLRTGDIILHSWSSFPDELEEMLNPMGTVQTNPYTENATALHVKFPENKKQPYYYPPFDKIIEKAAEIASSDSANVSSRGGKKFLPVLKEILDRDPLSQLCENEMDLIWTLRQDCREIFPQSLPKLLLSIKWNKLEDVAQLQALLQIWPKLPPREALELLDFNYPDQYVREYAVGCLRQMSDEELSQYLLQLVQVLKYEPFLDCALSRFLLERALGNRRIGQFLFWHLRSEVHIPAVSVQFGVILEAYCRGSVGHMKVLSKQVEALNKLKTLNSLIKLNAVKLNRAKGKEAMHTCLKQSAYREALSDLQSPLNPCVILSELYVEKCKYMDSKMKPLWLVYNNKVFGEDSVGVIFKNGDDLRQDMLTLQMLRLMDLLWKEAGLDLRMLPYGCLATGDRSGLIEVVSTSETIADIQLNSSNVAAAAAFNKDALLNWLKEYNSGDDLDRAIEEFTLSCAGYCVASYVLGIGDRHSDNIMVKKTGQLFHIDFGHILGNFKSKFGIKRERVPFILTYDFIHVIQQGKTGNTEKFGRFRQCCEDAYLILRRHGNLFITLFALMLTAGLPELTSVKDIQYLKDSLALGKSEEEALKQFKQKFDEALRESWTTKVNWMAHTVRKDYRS
Sequence of PI3K β (P27986 whole entry partner): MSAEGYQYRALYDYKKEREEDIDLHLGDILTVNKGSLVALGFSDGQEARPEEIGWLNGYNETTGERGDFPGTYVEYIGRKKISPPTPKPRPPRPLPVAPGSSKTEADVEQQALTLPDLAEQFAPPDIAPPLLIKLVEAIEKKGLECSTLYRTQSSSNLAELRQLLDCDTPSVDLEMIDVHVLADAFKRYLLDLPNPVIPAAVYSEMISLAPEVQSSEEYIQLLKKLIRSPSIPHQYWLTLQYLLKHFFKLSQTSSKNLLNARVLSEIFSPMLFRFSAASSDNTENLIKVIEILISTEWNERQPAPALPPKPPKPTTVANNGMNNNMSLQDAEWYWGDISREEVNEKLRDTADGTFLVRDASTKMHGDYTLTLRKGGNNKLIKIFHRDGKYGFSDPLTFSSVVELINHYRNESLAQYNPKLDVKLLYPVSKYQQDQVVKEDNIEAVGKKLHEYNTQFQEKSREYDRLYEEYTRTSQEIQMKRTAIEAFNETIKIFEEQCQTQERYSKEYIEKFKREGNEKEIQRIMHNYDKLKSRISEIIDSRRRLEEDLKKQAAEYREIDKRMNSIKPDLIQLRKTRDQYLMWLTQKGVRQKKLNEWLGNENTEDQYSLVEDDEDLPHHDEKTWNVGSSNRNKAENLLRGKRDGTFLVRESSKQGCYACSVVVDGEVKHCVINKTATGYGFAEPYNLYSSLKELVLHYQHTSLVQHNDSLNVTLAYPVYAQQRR
Sequence of PI3K α (P42336 whole entry): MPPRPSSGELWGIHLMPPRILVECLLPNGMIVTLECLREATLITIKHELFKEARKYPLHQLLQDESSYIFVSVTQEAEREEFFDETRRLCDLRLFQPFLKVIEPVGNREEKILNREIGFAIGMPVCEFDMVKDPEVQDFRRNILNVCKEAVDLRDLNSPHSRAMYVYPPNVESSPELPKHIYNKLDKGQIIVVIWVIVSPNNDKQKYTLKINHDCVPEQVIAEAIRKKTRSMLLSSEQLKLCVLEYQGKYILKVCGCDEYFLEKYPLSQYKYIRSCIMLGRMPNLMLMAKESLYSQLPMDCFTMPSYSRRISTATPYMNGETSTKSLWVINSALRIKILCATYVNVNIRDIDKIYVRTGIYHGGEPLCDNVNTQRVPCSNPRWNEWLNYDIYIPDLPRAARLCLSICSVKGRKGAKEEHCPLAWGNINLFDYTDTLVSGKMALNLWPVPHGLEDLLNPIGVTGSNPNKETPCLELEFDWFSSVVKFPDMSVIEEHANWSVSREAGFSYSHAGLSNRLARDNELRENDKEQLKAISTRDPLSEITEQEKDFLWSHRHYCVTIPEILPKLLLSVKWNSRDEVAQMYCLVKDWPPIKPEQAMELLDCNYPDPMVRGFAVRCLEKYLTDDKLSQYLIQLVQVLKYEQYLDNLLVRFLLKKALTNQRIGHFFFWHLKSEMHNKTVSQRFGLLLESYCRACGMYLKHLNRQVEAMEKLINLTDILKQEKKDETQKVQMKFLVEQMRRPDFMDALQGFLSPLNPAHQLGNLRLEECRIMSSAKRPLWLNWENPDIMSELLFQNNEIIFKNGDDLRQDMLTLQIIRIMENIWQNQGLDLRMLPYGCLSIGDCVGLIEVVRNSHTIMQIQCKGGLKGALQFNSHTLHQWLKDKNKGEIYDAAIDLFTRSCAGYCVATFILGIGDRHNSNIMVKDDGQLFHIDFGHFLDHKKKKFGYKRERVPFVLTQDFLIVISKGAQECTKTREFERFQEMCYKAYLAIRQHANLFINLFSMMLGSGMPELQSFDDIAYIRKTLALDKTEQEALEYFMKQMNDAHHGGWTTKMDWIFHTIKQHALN
Sequence of PI3K α (P27986 whole entry partner): as the sequence (P27986 whole entry partner) above

SMILES | IC50 ([5]; Table 2) | IC50 ([2]; read-out: PI3K α IC50) | IC50 ([3]; read-out: PI3K β IC50, Table 2) | IC50 ([4]; read-out: PI3K δ IC50) | also measured
Nc1nsc2cc(-c3ccc4nccc(-c5ccncc5)c4c3)ccc12 [Compound 13] |  |  |  |  | IC50 [1]: < 1000 nM; IC50 [2]: < 100 nM; IC50 [3]: < 1000 nM; IC50 [4]: < 1000 nM
CCOC(=O)Cn1nc(-c2cc3cc(O)ccc3[nH]2)c2c(N)ncnc21 [Compound 28] | < 500 nM | > 500 nM | > 500 nM | > 500 nM | 
COc1cc2cc(-c3nn(C(C)C)c4ncnc(N)c34)[nH]c2cc1Cl [Compound 29] | > 500 nM |  |  |  | 
CC(=O)N1CCC(n2nc(-c3cc4cc(O)ccc4[nH]3)c3c(N)ncnc32)CC1 [Compound 30] | < 25 nM | > 500 nM | > 500 nM |  | IC50 ([4]; read-out: PI3K δ IC50, Table 2): > 500 nM
Nc1ncnc2c1c(-c1cc3cc(O)ccc3[nH]1)nn2C1CCN(C(=O)C2CC2)CC1 [Compound 31] | < 25 nM | > 500 nM | > 500 nM |  | IC50 ([4]; read-out: PI3K δ IC50, Table 2): 100 to 500 nM
CC(C)n1nc(-c2cc3cc(O)c(Cl)cc3[nH]2)c2c(N)ncnc21 [Compound 32] | < 500 nM | > 500 nM |  | > 500 nM | IC50 ([1]; read-out: PI3K γ IC50, Table 2): > 500 nM
Nc1ncnc2c1c(-c1cc3cc(O)ccc3[nH]1)nn2CCN1CCOCC1 [Compound 33] | < 500 nM |  |  |  | IC50 ([1]; read-out: PI3K γ IC50, Table 2): > 500 nM; IC50 ([2]; read-out: PI3K α IC50, Table 2): > 500 nM; IC50 ([4]; read-out: PI3K δ IC50, Table 2): > 500 nM
Nc1ncnc2c1c(-c1cc3cc(O)ccc3[nH]1)nn2CC(=O)N1CCOCC1 [Compound 34] | > 500 nM | > 500 nM |  | > 500 nM | IC50 ([1]; read-out: PI3K γ IC50): > 500 nM
CNC(=O)Cn1nc(-c2cc3cc(O)ccc3[nH]2)c2c(N)ncnc21 [Compound 35] | > 500 nM | > 500 nM |  | > 500 nM | IC50 ([1]; read-out: PI3K γ IC50, Table 2): > 500 nM
Nc1ncnc2c1c(-c1cc3cccc(O)c3[nH]1)nn2C1CCCC1 [Compound 36] | < 10 nM |  |  |  | IC50 ([1]; read-out: PI3K γ IC50, Table 2): 50 to 100 nM; IC50 ([2]; read-out: PI3K α IC50, Table 2): > 500 nM; IC50 ([4]; read-out: PI3K δ IC50, Table 2): 100 to 500 nM
Nc1ncnc2c1c(-c1cc3cc(O)ccc3[nH]1)nn2Cc1cccnc1 [Compound 38] | < 500 nM |  |  |  | IC50 ([1]; read-out: PI3K γ IC50): > 500 nM; IC50 ([2]; read-out: PI3K α IC50, Table 2): > 500 nM; IC50 ([4]; read-out: PI3K δ IC50, Table 2): > 500 nM
CC(C)n1nc(-c2cc3c(Cl)ccc(O)c3[nH]2)c2c(N)ncnc21 [Compound 39] | < 10 nM |  |  |  | IC50 ([1]; read-out: PI3K γ IC50): > 500 nM; IC50 ([2]; read-out: PI3K α IC50, Table 2): > 500 nM; IC50 ([4]; read-out: PI3K δ IC50, Table 2): > 500 nM
COCCn1nc(-c2cc3cc(O)ccc3[nH]2)c2c(N)ncnc21 [Compound 40] | < 100 nM |  |  | > 500 nM | IC50 ([1]; read-out: PI3K γ IC50, Table 2): > 500 nM; IC50 ([2]; read-out: PI3K α IC50, Table 2): > 500 nM
Nc1ncnc2c1c(-c1cc3cc(O)ccc3[nH]1)nn2C1CCOCC1 [Compound 42] | < 5 nM | > 500 nM | > 500 nM | 50 to 100 nM | 
CNC(=O)CCn1nc(-c2cc3cc(O)ccc3[nH]2)c2c(N)ncnc21 [Compound 43] | > 500 nM | > 500 nM | > 500 nM |  | IC50 ([4]; read-out: PI3K δ IC50, Table 2): > 500 nM
Cc1nccn1CCn1nc(-c2cc3cc(O)ccc3[nH]2)c2c(N)ncnc21 [Compound 44] | < 100 nM |  | > 500 nM | > 500 nM | IC50 ([2]; read-out: PI3K α IC50, Table 2): > 500 nM
CC(C)n1nc(-c2cc3cc(O)ccc3[nH]2)c2c(N)nccc21 [Compound 45] | > 500 nM |  |  |  | 
Nc1ncnc2c1c(-c1cc3cc(O)ccc3[nH]1)nn2C1CC(=O)C1 [Compound 53] | < 100 nM | > 500 nM | > 500 nM |  | IC50 ([1]; read-out: PI3K γ IC50, Table 2): > 500 nM
Nc1ncnc2c1c(-c1cc3cc(O)ccc3[nH]1)nn2C1CC(O)C1 (stereo not drawn) [Compound 54] | < 25 nM |  | > 500 nM |  | IC50 ([1]; read-out: PI3K γ IC50, Table 2): > 500 nM; IC50 ([2]; read-out: PI3K α IC50, Table 2): > 500 nM
Nc1nc2cc(-c3ccc4ncc(NC5CCC(O)CC5)nc4c3)ccc2o1 (stereo not drawn) [Compound 128] |  | < 100 nM |  | < 100 nM | IC50 ([1]; read-out: PI3K γ IC50): < 100 nM; IC50 ([3]; read-out: PI3K β IC50): < 10000 nM
CC(=O)Nc1nc2ccc(-c3nc(N4CCOCC4)c4sc(CN5CCN(S(C)(=O)=O)CC5)cc4n3)cc2s1 [Compound 130] |  | > 10000 nM |  | > 10000 nM | IC50 ([1]; read-out: PI3K γ IC50): > 10000 nM; IC50 ([3]; read-out: PI3K β IC50): > 10000 nM
CCN1CCN(C(=O)c2cnc3ncc(-c4ccc5oc(N)nc5c4)cn23)CC1 [Compound 141] |  |  |  |  | IC50 [1]: < 10000 nM; IC50 [2]: < 1000 nM; IC50 [3]: > 10000 nM; IC50 [4]: > 10000 nM
Nc1nc2cc(-c3ccc4ncc(C(=O)NC5CCC(O)CC5)n4c3)ccc2o1 (stereo not drawn) [Compound 143] |  |  |  |  | IC50 ([1]; read-out: PI3K γ IC50): < 100 nM; IC50 [5]: > 10000 nM; IC50 ([3]; read-out: PI3K β IC50): < 10000 nM
Nc1nc2cc(-c3ccc4ncc(C(=O)N5CCN(CC6CC6)CC5)n4c3)ccc2o1 [Compound 161] |  | < 1000 nM |  | < 10000 nM | IC50 ([1]; read-out: PI3K γ IC50): < 10000 nM; IC50 ([3]; read-out: PI3K β IC50): < 10000 nM
CC(C)[C@@H](N)C(=O)N1CCN(c2cnc3ccc(-c4ccc5oc(N)nc5c4)cc3n2)CC1 [Compound 270] |  | < 100 nM |  | < 1000 nM | IC50 [5]: < 10000 nM; IC50 ([3]; read-out: PI3K β IC50): < 1000 nM
